Consider 8 compounds from PubChem BioAssay (NCI).

Common to all, as to assay: NCI-60 cell line screen, 48 h
In experiment [1] the test system is HCT-116 colon.
For experiment [2], the system named is SNB-19 CNS.
Experiment [3] has as its system M14 melanoma.
Experiment [4] has as its system SNB-75 CNS.
Experiment [5] deals with NCI-H460 lung.
For experiment [6], the system named is U251 CNS.
For experiment [7], the system named is UO-31 renal.
Experiment [8] has as its system SK-MEL-28 melanoma.
In experiment [9] the test system is HCT-15 colon.
Experiment [10] relates to MCF7 breast.

“And” between values parts separate entries of the source, which are not always exact repeats. Identical values can stand only once.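 Briefly, cells in 96-well plates were exposed to five compound concentrations for 48 h, and endpoints were estimated by linear interpolation. GI50: concentration for 50% inhibition of growth. TGI marks complete inhibition of growth.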

With `COC(=O)c1cc2ccccc2c2c3c(ccc12)OCO3`, the GI50 was 194 µM in experiment [1]; 73 µM in experiment [2]; 474 µM in [3]; 12.2 µM in experiment [4]; 290 µM in [5]; 79.2 µM in experiment [6]. Further, the GI50 in experiment [7] is 224 µM; in experiment [8] it was 71.3 µM; in experiment [9], 137 µM; in experiment [10] it was 306 µM. The TGI is greater than 1000 µM in [1]; 990 µM in experiment [2]; greater than 1000 µM in experiment [3]; 48.1 µM in experiment [4]; greater than 1000 µM in [5]; 924 µM in experiment [6]. For the same compound, the TGI in experiment [7] was greater than 1000 µM; in experiment [8], 328 µM; in [9], greater than 1000 µM; in experiment [10], greater than 1000 µM.
As to `COC(=O)C1=C(C)NC(C)=C(C(=O)OCC(C)C)C1c1ccccc1[N+](=O)[O-]` (stereo not given), the GI50 is 3.02 µM in experiment [1]; 8.2 µM in [2]; 2.9 µM in experiment [3]; 2.44 µM in experiment [4]; 3.6 µM in experiment [5]; 4.27 µM in experiment [6]. The GI50 was 1.73 µM in experiment [7], 4.18 µM in [8], 3.88 µM in experiment [9] and 3.58 µM in [10]. For the same compound, the TGI in experiment [1] is 12.1 µM; in [2], 64.3 µM; in [3], 8.21 µM; in [4], 15.2 µM; in experiment [5], 15.2 µM; in [6], 17.6 µM. For the same compound, the TGI in experiment [7] worked out at 7.07 µM; in experiment [8], 15.2 µM; in experiment [9], 15.9 µM; in [10] it was 16.1 µM.
For the compound `Cc1ccc(-c2nc3nc(-c4ccccc4)nc(N4CCNCC4)c3o2)cc1`, the GI50 was 0.185 µM in experiment [1]; 1.06 µM in [2]; 1.77 µM in experiment [3]; 1.58 µM in [4]; 0.226 µM in [5]; 0.181 µM in experiment [6]. For the same compound, the GI50 in experiment [7] is 0.513 µM; in experiment [8], 1.89 µM; in experiment [9], 0.291 µM; in experiment [10], 0.401 µM. Also, the TGI stood at 0.337 µM in [1]; 2.58 µM in experiment [2]; 3.25 µM in experiment [3]; 3.02 µM in experiment [4]; 0.503 µM in experiment [5]; 0.338 µM in [6]. For the same compound, the TGI in experiment [7] was 1.01 µM; in [8], 3.43 µM; in [9], 0.834 µM; in experiment [10], 1.73 µM.
With `COc1cccc(-c2cc3c4c(nc5ccccc53)C(=O)c3cccnc3-c4n2)c1`, the GI50 is 1.3 µM in experiment [1]; 4.2 µM in experiment [2]; 0.863 µM in [3]; 2.32 µM in experiment [4]; 1.07 µM in experiment [5]; 1.66 µM in experiment [6]. Moreover, the GI50 is 2.02 µM in [7], 10.2 µM in experiment [8], 1.52 µM in experiment [9] and 0.418 µM in experiment [10]. The TGI was found to be 5.75 µM in experiment [1]; 11.2 µM in experiment [2]; 2.36 µM in [3]; 5.71 µM in experiment [4]; 7.13 µM in experiment [6]; 8.45 µM in experiment [7]. Also, the results for the TGI in [8], in experiment [9] and in experiment [10] were 22.3 µM, 4.44 µM and greater than 100 µM, respectively.
Regarding `O=c1c(O)c(-c2ccc(O)c(O)c2)oc2cc(O)cc(O)c12`, the GI50 was 16.9 µM in [1]; 13.1 µM in experiment [2]; 17.3 µM in [3]; 4.42 µM in experiment [4]; 6.73 µM in [5]; 8.68 µM in experiment [6]. The GI50 was 8.48 µM in experiment [7], 17.9 µM in [8], 10.1 µM in experiment [9] and 7.95 µM in experiment [10]. Also, the TGI in experiment [1] was greater than 100 µM; in experiment [2], greater than 100 µM; in experiment [3] it was greater than 100 µM; in [4], 39.2 µM and > 100 µM; in [5] it was 66.9 µM and > 100 µM; in experiment [6], greater than 100 µM. Moreover, the TGI in [7], in experiment [8], in experiment [9] and in [10] was greater than 100 µM in each case.
Take `CC(C)CCNCC(O)Cn1c2ccccc2c2ccccc21` (stereo not given): the GI50 was 9.47 µM in experiment [1]; 13.8 µM in experiment [2]; 2.73 µM in [3]; 6.54 µM in experiment [4]; 3.64 µM in experiment [5]; 10.5 µM in experiment [6]. The GI50 in [7] was 9.21 µM; in [8], 4.42 µM; in [9], 11.9 µM; in experiment [10], 2.72 µM. The TGI was determined as 24.1 µM in experiment [1]; 28.8 µM in [2]; 7.5 µM in [3]; 21 µM in [4]; 13.7 µM in [5]; 23.5 µM in [6]. The TGI amounted to 23.3 µM in [7], 16.1 µM in experiment [8], 26.7 µM in experiment [9] and 10.3 µM in experiment [10].
Take `CC[C@H](CO)Nc1nc(NCc2ccccc2)c2ncn(C(C)C)c2n1`: the GI50 was 11.1 µM in [1]; 26.4 µM in [2]; 31.6 µM in experiment [3]; 40 µM in experiment [6]; 16.7 µM in experiment [7]; 21.5 µM in experiment [8]. In addition, the TGI in [1] was greater than 100 µM; in [2], greater than 100 µM; in [3], greater than 100 µM; in experiment [4] it was 30.6 µM; in experiment [5], greater than 100 µM; in [6], greater than 100 µM. Besides, the TGI in experiment [7] is 96.9 µM; in experiment [8] it was 74.9 µM; in experiment [9], greater than 81.6 µM; in experiment [10] it was greater than 81.5 µM.
Take `Cc1ccc(C(=O)NC2CCC2)cc1-c1ccc(C(=O)NCC2CC2)cc1`: the GI50 in experiment [1], in [2], in [3], in experiment [4], in [5] and in [6] was greater than 25 µM throughout. Besides, the GI50 in [7], in experiment [8], in [9] and in experiment [10] was greater than 25 µM in each case. Further, the TGI in experiment [1], in experiment [2], in [3], in [4], in [5] and in [6] was greater than 25 µM throughout. The TGI in [7], in experiment [8], in [9] and in experiment [10] was greater than 25 µM in each case.
